pIC50: −log10 of the molar value. Structures can show the parent of a compound that is named as a salt. Where two headings read alike, the source gives them in different places.
Assays:
Experiment in all cases: Microculture tetrazolium assay
Format in all cases: cell-based
LOX = tested on: LOX
SKOV3 = tested on: SKOV3
T47D = tested on: T47D
SKVLB = details: for VLB/OV3: IC50 ratio SKVLB/SKOV3; for pIC50: SKVLB
HT29 = tested on: HT29
[1] = Homo sapiens, SK-OV-3, SKOV3, read-out: IC50
[2] = Homo sapiens, HT-29, HT29, read-out: IC50

Structure (SMILES) | pIC50 (LOX; read-out: IC50) | pIC50 (SKOV3; [1]) | pIC50 (SKVLB; read-out: IC50) | pIC50 (HT29; [2]) | pIC50 (T47D; Homo sapiens, read-out: IC50) | pIC50 (SKOV3; SKOV3, read-out: IC50) | pIC50 (T47D; read-out: IC50) | pIC50 (HT29; HT29, read-out: IC50) | pIC50 (T47D; Homo sapiens) | VLB/OV3 (SKVLB) | pIC50 (SKOV3; Homo sapiens, SK-OV-3, SKOV3) | pIC50 (HT29; Homo sapiens, HT-29, HT29) | pIC50 (SKVLB) | pIC50 (LOX)
CC(=O)C1CC2=C(C(=O)c3cc4ccccc4c(O)c3C2=O)C(O[C@H]2C[C@H](NC(=O)C(F)(F)F)[C@@H](O)[C@H](C)O2)O1 (stereo partly drawn) [BCH-1637] | 5.68 | 5.64 | 5.42 | 6.16 | – | – | – | – | 5.28 | 1.68 | – | – | – | –
CC(F)(F)C1CC2=C(CO1)C(=O)c1cc3ccccc3c(O)c1C2=O (stereo not drawn) [BCH-1638, 3-(1',1'-difluoroethyl)-6 and 11-hydroxy-1,2,3,4-tetrahydro-(2-oxygen)-naphthacene-5,12-dione] | < 4.00 | < 4.00 | < 4.00 | < 4.00 | < 4.00 | – | – | – | – | – | – | – | – | –
CC(F)(F)C1CC2=C(CO1)C(=O)c1c(cc3ccccc3c1O)C2=O (stereo not drawn) [BCH-1639, 3-(1',1'-difluoroethyl)-6 and 11-hydroxy-1,2,3,4-tetrahydro-(2-oxygen)-naphthacene-5,12-dione] | < 4.00 | < 4.00 | < 4.00 | < 4.00 | < 4.00 | – | – | – | – | – | – | – | – | –
C[C@@H]1O[C@@H](O[C@H]2OCCC3=C2C(=O)c2cc4ccccc4c(O)c2C3=O)C[C@H](NC(=O)C(F)(F)F)[C@@H]1O [BCH-1646] | 5.53 | – | 5.18 | – | 5.55 | – | – | – | – | 1.31 | 5.30 | 5.23 | – | –
CCN(CC)C(=O)[C@H]1CC2=C(C(=O)c3cc4ccccc4c(O)c3C2=O)[C@H](O[C@H]2C[C@H](NC(=O)C(F)(F)F)[C@H](O)[C@H](C)O2)O1 [BCH-1653] | 5.41 | 5.49 | – | 6.05 | 5.15 | – | – | – | – | 1.85 | – | – | 5.22 | –
CCN(CC)C(=O)[C@@H]1CC2=C(C(=O)c3cc4ccccc4c(O)c3C2=O)[C@@H](O[C@H]2C[C@H](NC(=O)C(F)(F)F)[C@H](O)[C@H](C)O2)O1 [BCH-1656] | 5.41 | – | 5.15 | 5.42 | 5.28 | – | – | – | – | 1.72 | 5.39 | – | – | –
COC[C@@H]1CC2=C(C(=O)c3cc4ccccc4c(O)c3C2=O)[C@@H](O[C@H]2C[C@H](N)[C@H](O)[C@H](C)O2)O1 [BCH-1695, (1'S ,1R,3S)-5,12-dioxo-6-hydroxy-3-methoxymethyl-1-(2',3',6'trideoxy-3'-amino-L-lyxohexopyranose)-3,4,5,12-tetrahydroanthraceno-[2,3-c]pyran] | 5.28 | – | 4.59 | 4.83 | 4.89 | – | – | – | – | 4.46 | 5.24 | – | – | –
CC(=O)[C@@H]1CC2=C(C(=O)c3cc4ccccc4c(O)c3C2=O)[C@@H](O[C@@H]2O[C@@H](C)[C@@H](O)[C@@H](O)C2I)O1 (stereo partly drawn) [BCH-1990] | 5.52 | 5.68 | – | 5.96 | 5.41 | – | – | – | – | 2.64 | – | – | 5.26 | –
COCC1(COC)CC2=C(C(=O)c3cc4ccccc4c(O)c3C2=O)[C@H](O[C@H]2C[C@H](N)[C@H](O)[C@H](C)O2)O1 [BCH-1991, (1'S,1S)-5,12-dioxo-6-hydroxy-3,3-bis-methoxymethyl-1-(2',3',6'-trideoxy-3'-amino-L-lyxohexopyranose)-3,4,5,12-tetrahydroanthraceno-[2,3-c]-pyran hydrochloride] | 5.89 | 5.83 | – | 5.76 | 6.04 | – | – | – | – | 3.77 | – | – | 5.26 | –
CC(=O)[C@@H]1Cc2c(O)c3c(c(O)c2[C@@H](O[C@H]2O[C@H](CO)[C@@H](O)[C@H](O)[C@H]2NC(=O)N(CCCl)N=O)O1)C(=O)c1ccccc1C3=O [BCH-1999, (1'R, 1R,3S)-3-aceto-5,12-dihydroxy-1(2-deoxy-2-chloroethylnitrosoureido D-glucopyranose)-6,11-dioxo-3,4,6,11-tetrahydro-1H-anthra[2,3-c]pyran] | – | – | – | – | – | – | – | – | 4.70 | – | > 5.11 | 5.09 | 6.00 | 5.30
C=CC[C@H]1CC2=C(C(=O)c3cc4ccccc4c(O)c3C2=O)[C@H](O[C@H]2C[C@H](N)[C@H](O)[C@H](C)O2)O1 [BCH-2006, (1'S,1S,3S)-3-(6-hydroxy-1-(2',3',6'-trideoxy-3'-amino-4'-hydroxy-L-lyxohexopyranose)-5,12-dioxo-3,4,5,12-tetrahydroanthraceno-[2,3-c]pyran-3-yl)propene hydrochloride] | 6.32 | 6.05 | 5.43 | 6.39 | 5.72 | – | – | – | – | 4.23 | – | – | – | –
C[C@@H]1O[C@@H](O[C@H]2O[C@H](C#N)CC3=C2C(=O)c2cc4ccccc4c(O)c2C3=O)C[C@H](NC(=O)C(F)(F)F)[C@@H]1O [BCH-2007, (1'S,1R,3S)-3-(6-hydroxy-1-(2',3',6'-trideoxy-3'-trifluoroacetamido-4'-hydroxy-L-lyxohexopyranose)-5,12-dioxo-3,4,5,12-tetrahydroanthraceno-[2,3-c]pyran-3-yl)nitrile] | 6.42 | 6.36 | 5.55 | 6.83 | 6.30 | – | – | – | – | 6.44 | – | – | – | –

Now from value to molecule, other results behind:

pIC50 (LOX; read-out: IC50) | pIC50 (SKOV3; [1]) | pIC50 (SKVLB; read-out: IC50) | pIC50 (HT29; [2]) | pIC50 (T47D; Homo sapiens, read-out: IC50) | pIC50 (SKOV3; SKOV3, read-out: IC50) | pIC50 (T47D; read-out: IC50) | pIC50 (HT29; HT29, read-out: IC50) | Structure (SMILES) | pIC50 (T47D; Homo sapiens) | VLB/OV3 (SKVLB) | pIC50 (SKOV3; Homo sapiens, SK-OV-3, SKOV3) | pIC50 (HT29; Homo sapiens, HT-29, HT29) | pIC50 (SKVLB) | pIC50 (LOX)
5.87 | 5.77 | 5.56 | 6.06 | 5.70 | – | – | – | CC(=O)[C@@H]1CC2=C(C(=O)c3cc4ccccc4c(O)c3C2=O)[C@@H](O[C@H]2C[C@H](NC(=O)C(F)(F)F)[C@H](O)[C@H](C)O2)S1 [BCH-1641] | – | 1.63 | – | – | – | –
5.86 | 5.69 | 5.42 | 6.22 | 5.43 | – | – | – | CC(=O)C1CC2=C(C(=O)c3cc4ccccc4c(O)c3C2=O)C(OC[C@H](O)CO)S1 (stereo partly drawn) [BCH-1645] | – | 1.90 | – | – | – | –
5.49 | 5.44 | 5.22 | 5.60 | 6.06 | – | – | – | C[C@@H]1O[C@@H](O[C@@H]2OCCC3=C2C(=O)c2cc4ccccc4c(O)c2C3=O)C[C@H](NC(=O)C(F)(F)F)[C@@H]1O [BCH-1647] | – | 1.67 | – | – | – | –
5.55 | 5.64 | 5.69 | 5.20 | 5.30 | – | – | – | CC(=O)C1CC2=C(C(=O)c3cc4ccccc4c(O)c3C2=O)C(OC[C@@H]2COC(C)(C)O2)S1 (stereo partly drawn) [BCH-1660] | – | 0.88 | – | – | – | –
5.44 | 5.55 | 5.58 | 5.52 | 5.29 | – | – | – | CC(=O)C1CC2=C(C(=O)c3cc4ccccc4c(O)c3C2=O)C(OC[C@@H]2COC(C)(C)O2)O1 (stereo partly drawn) [BCH-1661] | – | 0.94 | – | – | – | –
5.45 | 5.52 | 5.02 | 5.37 | 5.35 | – | – | – | COC[C@@H]1CC2=C(C(=O)c3cc4ccccc4c(O)c3C2=O)[C@@H](O[C@H]2C[C@H](NC(=O)C(F)(F)F)[C@H](O)[C@H](C)O2)O1 [BCH-1694, (1'S,1R,3S)-5,12-dioxo-6-hydroxy-3-methoxymethyl-1-(2',3',6'-trideoxy-3'-trifluoroacetamido-L-lyxohexopyranose)-3,4,5,12-tetrahydroanthraceno-[2,3-C]pyran] | – | 3.19 | – | – | – | –
5.96 | 5.96 | 5.57 | 6.08 | 5.92 | – | – | – | COC[C@H]1CC2=C(C(=O)c3cc4ccccc4c(O)c3C2=O)[C@H](O[C@H]2C[C@H](NC(=O)C(F)(F)F)[C@H](O)[C@H](C)O2)O1 [BCH-1696, (1'S,1S,3R)-5,12-dioxo-6-hydroxy-3-methoxymethyl-1-(2',3',6'-trideoxy-3'-trifluoroacetamido-L-lyxohexopyranose)-3,4,5,12-tetrahydroanthraceno-[2,3-C]pyran] | – | 2.46 | – | – | – | –
6.40 | 6.06 | 5.24 | 5.95 | 6.14 | – | – | – | COCC1(COC)CC2=C(C(=O)c3cc4ccccc4c(O)c3C2=O)[C@H](O[C@H]2C[C@H](NC(=O)C(F)(F)F)[C@H](O)[C@H](C)O2)O1 [BCH-1698, (1'S,1S)-5,12-dioxo-6-hydroxy-3,3-bismethoxymethyl-1-(2',3',6'-trideoxy-3'-trifluoroacetamido-L-lyxohexopyranose)-3,4,5,12-tetrahydroanthraceno-[2,3-C]pyran] | – | 6.73 | – | – | – | –
5.40 | – | 4.89 | – | – | 5.38 | 5.01 | 5.46 | CC(=O)[C@@H]1CC2=C(C(=O)c3cc4ccccc4c(O)c3C2=O)[C@H](OC[C@@H]2COC(C)(C)O2)S1 [BCH-1993] | – | 3.10 | – | – | – | –
5.72 | – | 5.06 | – | – | 5.56 | 5.36 | 5.71 | CC(=O)[C@H]1CC2=C(C(=O)c3cc4ccccc4c(O)c3C2=O)[C@@H](OC[C@@H]2COC(C)(C)O2)S1 [BCH-1994] | – | 3.15 | – | – | – | –
5.64 | 5.81 | 5.17 | 5.57 | 5.67 | – | – | – | C[C@@H]1O[C@@H](O[C@@H]2O[C@@H]([C@H](O)CO)CC3=C2C(=O)c2cc4ccccc4c(O)c2C3=O)C[C@H](NC(=O)C(F)(F)F)[C@@H]1O [BCH-1997] | – | 4.31 | – | – | – | –
5.60 | 5.51 | 5.24 | 5.86 | 5.59 | – | – | – | C[C@@H]1O[C@@H](O[C@@H]2O[C@@H](S(=O)(=O)c3ccccc3)CC3=C2C(=O)c2cc4ccccc4c(O)c2C3=O)C[C@H](NC(=O)C(F)(F)F)[C@@H]1O [BCH-2001] | – | 1.90 | – | – | – | –
5.76 | 5.91 | 5.45 | 6.01 | 5.84 | – | – | – | C[C@@H]1O[C@@H](O[C@@H]2OC=CC3=C2C(=O)c2cc4ccccc4c(O)c2C3=O)C[C@H](NC(=O)C(F)(F)F)[C@@H]1O [BCH-2002] | – | 2.88 | – | – | – | –

Reference: patent US5593970A, “Heterocyclic anthracycline analogs” (priority 1994, dated 1997)
